We go through 2 compounds from publication PMC8958428 (Yeast (Chichester, England), 2021).

The assay deals with Hem1p (Hem1-His6) (Saccharomyces cerevisiae, UniProt P09950). The assay can be described thus: ALA synthase activity, control reactions. To be noted: concentration not told. The class given is biochemical.
Hem1p (Hem1-His6), sequence (P09950 10-548): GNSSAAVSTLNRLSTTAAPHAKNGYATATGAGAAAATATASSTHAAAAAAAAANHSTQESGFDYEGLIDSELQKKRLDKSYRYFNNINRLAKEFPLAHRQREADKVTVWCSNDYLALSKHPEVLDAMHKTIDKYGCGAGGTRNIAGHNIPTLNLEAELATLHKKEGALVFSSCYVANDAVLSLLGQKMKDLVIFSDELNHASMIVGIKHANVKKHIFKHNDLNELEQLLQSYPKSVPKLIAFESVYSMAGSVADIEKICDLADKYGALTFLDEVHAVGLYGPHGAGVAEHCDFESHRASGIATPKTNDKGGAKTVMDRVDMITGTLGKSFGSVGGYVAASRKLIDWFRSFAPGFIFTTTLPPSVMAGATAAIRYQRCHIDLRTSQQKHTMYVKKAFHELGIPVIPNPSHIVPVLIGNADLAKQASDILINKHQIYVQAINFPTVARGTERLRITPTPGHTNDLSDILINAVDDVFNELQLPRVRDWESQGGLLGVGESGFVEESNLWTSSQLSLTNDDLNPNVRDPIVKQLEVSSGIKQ

For the compound `N[C@@H](CS)C(=O)O` [L-cysteine], the “ALA synthase activity, control reactions” value is “Control reactions showed that Hem1p was inhibited by both L-serine and L-cysteine”.
The result for `N[C@@H](CO)C(=O)O` [L-serine] reads “Control reactions showed that Hem1p was inhibited by both L-serine and L-cysteine”.
